{"source": "patent US11555179B2", "about": "“Identification of subpopulations of cardiomyocytes” (The University of Hong Kong, priority 2019, dated 2023)", "key": {"CD36^+ hESC-CMs": {"system": "CD36^+ hESC-CMs", "assay": "Doxorubicin-induced cardiotoxicity (XTT viability, TMRE/MTG Δψm)", "assay_type": "cell-based, human", "conditions": "for effect on cell viability upon dox treatment (XTT): pre-treatment (NAC 1 mM, 1 hr), FIGS. 5I-K show mixed, CD36^+ and CD36^− hESC-CMs", "experimental": "FIGS. 5A and 5B are bar graphs showing the normalized levels of cell viability (A) and mitochondrial membrane potential Δψm (B) of mixed (unsorted) hESC-CMs, CD36^+ hESC-CMs, and CD36^− hESC-CMs after exposure to doxorubicin (dox). The hESC-CMs were treated with 1 mM dox for 24 hrs. Cell viability and mitochondrial membrane potential Δψm were determined by the XTT and TMRE/MTG assays (n=9 and 7), respectively, and normalized to untreated hESC-CMs.\n(C) and (D): viability and Δψm for unsorted hESC-CMs; (E) and (F): viability and Δψm for CD36^+ hESC-CMs; (G) and (H): viability and Δψm for CD36^− hESC-CMs. The cells in the “Dox” groups were treated with 1 mM dox for 24 hrs; the cells in the “Dox+DRZ” groups were pre-treated with […] DRZ for 1 hr, followed by co-treatment with 1 mM dox for 24 hrs. Cell viability and mitochondrial membrane potential Δψm were determined by the XTT and TMRE/MTG assays (n=7 and 9), respectively, and normalized to untreated hESC-CMs (i.e., the “Control” groups). *p<0.05, **p<0.01, ***p<0.001.\nThe cells in the “Dox” groups were treated with 1 mM dox for 24 hrs; the cells in the “Dox+NAC” groups were pre-treated with 1 mM NAC for 1 hr, followed by co-treatment with 1 mM dox for 24 hrs. Cell viability was determined by the XTT assay (n=4) and normalized to untreated cells (i.e., the “Control” groups)."}, "hPSC-CMs": {"system": "hPSC-CMs", "conditions": "unsorted hPSC-CMs as currently utilized; cited from earlier work"}, "mouse models of DCT": {"system": "mouse models of DCT", "conditions": "in vivo; cited from earlier work"}, "[1]": {"conditions": "in vivo; cited from earlier work"}, "[2]": {"conditions": "dexrazoxane-treated pediatric patients, two randomized studies; cited from earlier work"}, "[3]": {"conditions": "doses exceeding 550 mg/m^2; cited from earlier work"}, "CD172A^+/CD36^+ hESC-CMs [4]": {"system": "CD172A^+/CD36^+ hESC-CMs", "conditions": "100 μM hydrogen peroxide for 30 min", "experimental": "(§1) FIGS. 4A-4D are bar graphs showing the relative levels of mitochondrial superoxide (A), mitochondrial membrane potential Δψm (B), nuclear condensation (C), and cell viability (D) in CD172A^+/CD36^+/−, CD172A^+/CD36^+, and CD172A^+/CD36^− hECS-CMs after exposure to 100 μM hydrogen peroxide for 30 min. The relative levels of mitochondrial superoxide, mitochondrial membrane potential, nuclear condensation, and cell viability were determined using the MitoSOX™ red dye (n=5), TMRE staining (n=5, calibrated by mitochondrial mass based on the result of MTG staining), Hoechst staining (n=5), and PrestoBlue® staining (n=9), respectively. *p<0.05, **p<0.01, ***p<0.001.\n(§2) The responses of mitochondrial function to oxidative stress were examined in subpopulations of hESC-CMs."}, "[5]": {"system": "CD172A^+/CD36^+/− hESC-CMs", "conditions": "100 μM hydrogen peroxide for 30 min", "experimental": "as §1, §2"}, "CD172A^+/CD36^− hESC-CMs [6]": {"system": "CD172A^+/CD36^− hESC-CMs", "conditions": "100 μM hydrogen peroxide for 30 min", "experimental": "as §1, §2"}, "CD172A^+/CD36^+ hESC-CMs [7]": {"system": "CD172A^+/CD36^+ hESC-CMs", "assay": "Mitochondrial membrane potential (TMRE) with oleic acid supplementation", "assay_type": "cell-based, human", "conditions": "nutrient-deficient media lacking fatty acids, plus oleic acid, FIG. 3B", "experimental": "(§3) FIG. 3A is a bar graph showing the uptake of fatty acid (FA) by C[…]^+/CD36^+ (black) and C[…]^+/CD36^- (white) hESC-CMs. The FA uptake assay was performed using a BODIPY-labeled C16 palmitate analog (n=6). FIG. 3B is a bar graph showing the relative levels of mitochondrial membrane potential Δψm in C[…]^+/CD36^+ and C[…]^+/CD36^- hESC-CMs cultured in the absence (black) and presence (gray) of oleic acid (n=5). […] In addition to enhanced mitochondrial output, adult CMs were characterized by their preference for fatty acid as fuel for energy production. In CMs, CD36 functions as a fatty acid translocase to facilitate the uptake of long-chain fatty acids such as palmitic and oleic acids, thus increased level of this protein is expected to enhance fatty acid entry into cells. […] Additional experiments were performed to test whether increased fatty acid uptake led to increased metabolic output. When cultured in nutrient-deficient media lacking fatty acids, C[…]^+/CD36^+ and C[…]^+/CD36^- CMs had similar Δψm."}, "CD172A^+/CD36^− hESC-CMs [8]": {"system": "CD172A^+/CD36^− hESC-CMs", "assay": "Mitochondrial membrane potential (TMRE) with oleic acid supplementation", "assay_type": "cell-based, human", "conditions": "nutrient-deficient media lacking fatty acids, plus oleic acid, FIG. 3B", "experimental": "as §3"}, "[9]": {"conditions": "then co-treatment with 1 mM dox 24 hrs"}}}
{"compound": "CC(=O)N[C@@H](CS)C(=O)O", "note": "[N-acetylcysteine]", "values": [{"measurement": "effect on cell viability upon dox treatment (XTT)", "setting": "CD36^+ hESC-CMs; [9]", "result": "did not increase cell viability"}, {"measurement": "protection of hPSC-CMs against DCT", "setting": "hPSC-CMs", "result": "rescued"}, {"measurement": "efficacy in mouse models of DCT", "setting": "mouse models of DCT", "result": "effective"}, {"measurement": "outcome in clinical trials (DCT)", "setting": "[1]", "result": "unsuccessful"}]}
{"compound": "C[C@@H](CN1CC(=O)NC(=O)C1)N1CC(=O)NC(=O)C1", "note": "[dexrazoxane]", "values": [{"measurement": "protective effect against DCT (viability and Δψm)", "setting": "CD36^+ hESC-CMs; 200 mM DRZ pre-treatment 1 hr, then co-treatment with 1 mM dox 24 hrs, CD36^+ hESC-CMs, FIGS. 5E, 5F", "result": "responded to the protective effect"}, {"measurement": "protection of hPSC-CMs against DCT", "setting": "hPSC-CMs", "result": "failed to protect"}, {"measurement": "incidence of second primary malignancies (myelodysplastic syndrome and acute myeloid leukemia)", "setting": "[2]", "result": "threefold increase"}]}
{"compound": "COc1cccc2c1C(=O)c1c(O)c3c(c(O)c1C2=O)C[C@@](O)(C(=O)CO)C[C@@H]3O[C@H]1C[C@H](N)[C@H](O)[C@H](C)O1", "note": "[dox, Doxorubicin]", "values": [{"measurement": "cell viability upon dox treatment (XTT)", "setting": "CD36^+ hESC-CMs; 1 mM dox for 24 hrs, CD36^+ hESC-CMs compared to mixed (unsorted) or CD36^− CMs, FIG. 5A", "result": "more severe decrease"}, {"measurement": "mitochondrial membrane potential (Δψm) upon dox treatment (TMRE/MTG)", "setting": "CD36^+ hESC-CMs; 1 mM dox for 24 hrs, CD36^+ hESC-CMs compared to mixed (unsorted) or CD36^− CMs, FIG. 5B", "result": "more severe decrease"}, {"measurement": "onset of dox-induced cell degeneration", "setting": "CD36^+ hESC-CMs; CD36^+ hESC-CMs compared to mixed (unsorted) or CD36^− CMs", "result": "accelerated onset"}, {"measurement": "incidence of congestive heart failure", "setting": "[3]", "result": "exceeds 30%"}]}
{"compound": "OO", "note": "[hydrogen peroxide]", "values": [{"measurement": "mitochondrial superoxide (MitoSOX red dye)", "setting": "CD172A^+/CD36^+ hESC-CMs [4]; FIG. 4A", "result": "3.5±0.3", "unit": "fold"}, {"measurement": "relative mitochondrial membrane potential Δψm (TMRE, calibrated by MTG)", "setting": "CD172A^+/CD36^+ hESC-CMs [4]; FIG. 4B", "result": "0.17±0.03"}, {"measurement": "nuclear condensation (Hoechst staining)", "setting": "CD172A^+/CD36^+ hESC-CMs [4]; FIG. 4C", "result": "73±8", "unit": "%"}, {"measurement": "mitochondrial superoxide (MitoSOX red dye)", "setting": "[5]; FIG. 4A", "result": "2.2±0.4", "unit": "fold"}, {"measurement": "relative mitochondrial membrane potential Δψm (TMRE, calibrated by MTG)", "setting": "[5]; FIG. 4B", "result": "0.30±0.03"}, {"measurement": "nuclear condensation (Hoechst staining)", "setting": "[5]; FIG. 4C", "result": "46±15", "unit": "%"}, {"measurement": "mitochondrial superoxide (MitoSOX red dye)", "setting": "CD172A^+/CD36^− hESC-CMs [6]; FIG. 4A", "result": "1.7±1.2", "unit": "fold"}, {"measurement": "relative mitochondrial membrane potential Δψm (TMRE, calibrated by MTG)", "setting": "CD172A^+/CD36^− hESC-CMs [6]; FIG. 4B", "result": "0.35±0.04"}, {"measurement": "nuclear condensation (Hoechst staining)", "setting": "CD172A^+/CD36^− hESC-CMs [6]; FIG. 4C", "result": "32%±11"}]}
{"compound": "CCCCCCCC/C=C\\CCCCCCCC(=O)O", "note": "[oleic acid]", "values": [{"measurement": "increase in magnitude of Δψm on supplementation with oleic acid", "setting": "CD172A^+/CD36^+ hESC-CMs [7]", "result": 43.0, "unit": "%"}, {"measurement": "increase in magnitude of Δψm on supplementation with oleic acid", "setting": "CD172A^+/CD36^− hESC-CMs [8]", "result": 22.9, "unit": "%"}]}
{"compound": "vitamin E", "values": [{"measurement": "effect on cell viability upon dox treatment (XTT)", "setting": "CD36^+ hESC-CMs; [9]", "result": "did not increase cell viability"}]}
